Results published in patent publication US8796268B2, “Heteroaryls and uses thereof” (Millennium Pharmaceuticals, Inc., priority 2010, dated 2014).

Key:
Format in all cases: biochemical
[1] = molecular target: T1, Human PI3K alpha (Homo sapiens, UniProt P42336); assay: Human PI3K alpha enzyme assay (HTRF); conditions: concentration not given, b1387 states 1.1 μM for PI3K α and β; for inhibition at 1.1 µM: read-out: p110 alpha Percent Inhibition
T1 construct: His (N); host or cells: SF9 insect cells (baculovirus)
T1 sequence (P42336 whole entry): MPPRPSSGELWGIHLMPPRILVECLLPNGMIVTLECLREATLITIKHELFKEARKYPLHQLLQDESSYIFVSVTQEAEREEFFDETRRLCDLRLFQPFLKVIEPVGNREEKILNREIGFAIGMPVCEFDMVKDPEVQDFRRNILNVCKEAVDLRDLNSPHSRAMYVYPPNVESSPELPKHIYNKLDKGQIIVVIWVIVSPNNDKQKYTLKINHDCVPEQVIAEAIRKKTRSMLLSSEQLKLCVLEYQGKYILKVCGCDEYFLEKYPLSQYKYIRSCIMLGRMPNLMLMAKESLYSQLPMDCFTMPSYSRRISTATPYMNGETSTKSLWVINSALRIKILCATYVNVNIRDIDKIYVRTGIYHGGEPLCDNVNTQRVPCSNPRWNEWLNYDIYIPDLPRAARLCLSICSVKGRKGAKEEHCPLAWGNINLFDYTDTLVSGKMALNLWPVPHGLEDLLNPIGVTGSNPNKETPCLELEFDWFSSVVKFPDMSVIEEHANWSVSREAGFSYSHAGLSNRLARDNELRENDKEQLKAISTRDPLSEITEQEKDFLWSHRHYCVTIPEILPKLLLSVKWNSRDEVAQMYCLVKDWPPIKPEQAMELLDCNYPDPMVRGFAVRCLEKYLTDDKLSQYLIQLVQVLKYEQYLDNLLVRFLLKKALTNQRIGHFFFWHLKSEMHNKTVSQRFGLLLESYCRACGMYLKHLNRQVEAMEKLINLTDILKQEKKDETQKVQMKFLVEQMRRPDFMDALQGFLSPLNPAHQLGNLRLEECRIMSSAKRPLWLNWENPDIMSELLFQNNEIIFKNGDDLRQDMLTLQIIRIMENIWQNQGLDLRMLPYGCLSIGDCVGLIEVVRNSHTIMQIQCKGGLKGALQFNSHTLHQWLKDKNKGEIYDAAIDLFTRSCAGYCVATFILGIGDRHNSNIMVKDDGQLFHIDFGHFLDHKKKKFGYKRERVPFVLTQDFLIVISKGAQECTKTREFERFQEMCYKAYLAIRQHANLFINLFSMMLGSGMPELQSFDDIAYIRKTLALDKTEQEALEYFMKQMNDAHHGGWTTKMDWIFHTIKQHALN
T1 sequence (P27986 whole entry partner): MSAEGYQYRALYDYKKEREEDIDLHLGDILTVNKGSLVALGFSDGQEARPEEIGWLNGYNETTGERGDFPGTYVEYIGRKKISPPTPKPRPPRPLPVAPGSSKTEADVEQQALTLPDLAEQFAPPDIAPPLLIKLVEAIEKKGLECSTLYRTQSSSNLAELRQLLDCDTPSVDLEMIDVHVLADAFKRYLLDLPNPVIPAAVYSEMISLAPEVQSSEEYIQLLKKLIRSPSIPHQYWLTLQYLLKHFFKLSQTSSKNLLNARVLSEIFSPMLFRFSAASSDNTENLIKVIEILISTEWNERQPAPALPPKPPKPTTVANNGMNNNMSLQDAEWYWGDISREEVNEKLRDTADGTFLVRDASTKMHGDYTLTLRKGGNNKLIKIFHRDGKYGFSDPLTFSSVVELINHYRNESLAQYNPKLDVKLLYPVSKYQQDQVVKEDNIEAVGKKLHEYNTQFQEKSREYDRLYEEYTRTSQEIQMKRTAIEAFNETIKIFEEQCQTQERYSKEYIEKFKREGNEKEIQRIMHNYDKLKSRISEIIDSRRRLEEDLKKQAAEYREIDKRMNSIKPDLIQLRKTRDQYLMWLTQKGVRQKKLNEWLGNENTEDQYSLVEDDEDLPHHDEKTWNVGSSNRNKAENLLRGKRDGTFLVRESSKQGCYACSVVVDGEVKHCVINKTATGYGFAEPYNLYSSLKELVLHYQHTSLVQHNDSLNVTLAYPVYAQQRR

[2] = molecular target: T2, Human PI3K beta (Homo sapiens, UniProt P42338); assay: Human PI3K beta enzyme assay (HTRF); conditions: concentration not given, b1387 states 1.1 μM for PI3K α and β; for inhibition at 1.1 µM: read-out: p110 beta Percent Inhibition
T2 construct: His (N); host or cells: SF9 insect cells (baculovirus)
T2 sequence (P42338 whole entry): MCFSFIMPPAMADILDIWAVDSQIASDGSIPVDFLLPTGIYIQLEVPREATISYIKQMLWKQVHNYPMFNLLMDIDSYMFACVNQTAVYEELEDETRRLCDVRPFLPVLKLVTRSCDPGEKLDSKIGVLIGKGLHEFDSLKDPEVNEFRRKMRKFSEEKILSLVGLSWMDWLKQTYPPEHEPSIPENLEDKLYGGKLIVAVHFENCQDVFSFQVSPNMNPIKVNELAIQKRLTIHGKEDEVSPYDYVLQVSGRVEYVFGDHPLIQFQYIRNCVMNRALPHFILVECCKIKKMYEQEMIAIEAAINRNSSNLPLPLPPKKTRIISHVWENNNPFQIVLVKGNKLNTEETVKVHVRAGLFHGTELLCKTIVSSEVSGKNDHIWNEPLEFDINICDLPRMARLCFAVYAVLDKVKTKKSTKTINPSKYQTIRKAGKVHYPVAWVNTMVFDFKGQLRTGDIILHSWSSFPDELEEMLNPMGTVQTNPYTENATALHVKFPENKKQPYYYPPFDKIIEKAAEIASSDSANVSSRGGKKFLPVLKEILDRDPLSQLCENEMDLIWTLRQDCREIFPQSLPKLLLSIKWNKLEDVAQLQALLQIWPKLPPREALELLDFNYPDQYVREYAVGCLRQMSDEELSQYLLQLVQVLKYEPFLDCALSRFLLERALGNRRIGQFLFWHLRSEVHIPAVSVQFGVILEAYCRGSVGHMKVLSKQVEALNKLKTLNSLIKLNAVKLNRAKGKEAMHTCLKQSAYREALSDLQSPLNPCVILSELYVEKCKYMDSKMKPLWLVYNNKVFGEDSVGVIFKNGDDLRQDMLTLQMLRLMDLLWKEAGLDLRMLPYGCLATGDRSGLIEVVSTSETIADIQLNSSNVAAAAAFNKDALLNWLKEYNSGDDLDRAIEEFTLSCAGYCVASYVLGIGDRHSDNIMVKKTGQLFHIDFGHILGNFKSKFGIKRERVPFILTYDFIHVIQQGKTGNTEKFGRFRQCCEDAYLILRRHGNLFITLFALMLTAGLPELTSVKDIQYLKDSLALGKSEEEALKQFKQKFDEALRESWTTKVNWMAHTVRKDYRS
T2 sequence (P27986 whole entry partner): as the sequence (P27986 whole entry partner) above
Outline: (§1)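 Compounds were mixed with 25 uM ATP, then with 3.5 uM di-C8 PI(4,5)P2 and His-tagged PI3K isoform (β 5.25 nM, δ 0.75 nM, γ 5 nM) at pH 7.00. After 30 min at room temperature, EDTA stopped the reaction and PIP3 was measured by HTRF over 1 h.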

[3] = molecular target: T3, Human PI3K delta (Homo sapiens, UniProt O00329); assay: Human PI3K delta enzyme assay (HTRF); conditions: concentration not given, b1389 states 1.0 μM for PI3K δ and γ; for inhibition at 1 µM: read-out: p110 delta Percent Inhibition
T3 construct: His (N); host or cells: SF9 insect cells (baculovirus)
T3 sequence (O00329 whole entry): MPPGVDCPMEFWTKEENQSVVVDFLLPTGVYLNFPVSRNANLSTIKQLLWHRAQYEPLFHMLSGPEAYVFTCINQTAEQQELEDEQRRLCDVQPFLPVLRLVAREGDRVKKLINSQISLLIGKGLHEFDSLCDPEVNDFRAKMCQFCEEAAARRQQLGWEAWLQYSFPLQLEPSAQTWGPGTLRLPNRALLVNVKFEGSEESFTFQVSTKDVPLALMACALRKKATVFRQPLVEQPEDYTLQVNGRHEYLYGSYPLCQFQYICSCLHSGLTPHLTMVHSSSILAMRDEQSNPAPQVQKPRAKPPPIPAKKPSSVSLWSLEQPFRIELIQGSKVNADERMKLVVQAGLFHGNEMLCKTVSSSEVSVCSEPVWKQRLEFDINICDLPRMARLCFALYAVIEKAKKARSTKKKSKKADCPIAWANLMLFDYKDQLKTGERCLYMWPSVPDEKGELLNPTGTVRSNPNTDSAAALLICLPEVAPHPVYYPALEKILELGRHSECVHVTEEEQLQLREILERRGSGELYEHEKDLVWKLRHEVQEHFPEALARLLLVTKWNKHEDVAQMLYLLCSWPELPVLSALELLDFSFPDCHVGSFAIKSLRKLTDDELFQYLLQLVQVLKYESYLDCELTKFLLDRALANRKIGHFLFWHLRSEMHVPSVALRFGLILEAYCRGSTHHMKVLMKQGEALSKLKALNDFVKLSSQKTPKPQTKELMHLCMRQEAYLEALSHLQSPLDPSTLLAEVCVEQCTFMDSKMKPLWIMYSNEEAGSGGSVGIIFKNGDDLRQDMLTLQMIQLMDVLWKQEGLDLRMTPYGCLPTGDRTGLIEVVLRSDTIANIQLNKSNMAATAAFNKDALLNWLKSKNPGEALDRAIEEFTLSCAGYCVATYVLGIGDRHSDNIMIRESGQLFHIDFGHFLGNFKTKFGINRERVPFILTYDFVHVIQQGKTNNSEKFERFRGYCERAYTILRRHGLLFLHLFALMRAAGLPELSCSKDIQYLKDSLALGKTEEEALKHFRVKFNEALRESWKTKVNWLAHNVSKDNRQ
T3 sequence (P27986 whole entry partner): as the sequence (P27986 whole entry partner) above
Outline: as §1

[4] = molecular target: T4, Human PI3K gamma (Homo sapiens, UniProt P48736); assay: Human PI3K gamma enzyme assay (HTRF); conditions: concentration not given, b1389 states 1.0 μM for PI3K δ and γ; for inhibition at 1 µM: read-out: p110 gamma Percent Inhibition
T4 construct: His (N); host or cells: SF9 insect cells (baculovirus)
T4 sequence (P48736 whole entry): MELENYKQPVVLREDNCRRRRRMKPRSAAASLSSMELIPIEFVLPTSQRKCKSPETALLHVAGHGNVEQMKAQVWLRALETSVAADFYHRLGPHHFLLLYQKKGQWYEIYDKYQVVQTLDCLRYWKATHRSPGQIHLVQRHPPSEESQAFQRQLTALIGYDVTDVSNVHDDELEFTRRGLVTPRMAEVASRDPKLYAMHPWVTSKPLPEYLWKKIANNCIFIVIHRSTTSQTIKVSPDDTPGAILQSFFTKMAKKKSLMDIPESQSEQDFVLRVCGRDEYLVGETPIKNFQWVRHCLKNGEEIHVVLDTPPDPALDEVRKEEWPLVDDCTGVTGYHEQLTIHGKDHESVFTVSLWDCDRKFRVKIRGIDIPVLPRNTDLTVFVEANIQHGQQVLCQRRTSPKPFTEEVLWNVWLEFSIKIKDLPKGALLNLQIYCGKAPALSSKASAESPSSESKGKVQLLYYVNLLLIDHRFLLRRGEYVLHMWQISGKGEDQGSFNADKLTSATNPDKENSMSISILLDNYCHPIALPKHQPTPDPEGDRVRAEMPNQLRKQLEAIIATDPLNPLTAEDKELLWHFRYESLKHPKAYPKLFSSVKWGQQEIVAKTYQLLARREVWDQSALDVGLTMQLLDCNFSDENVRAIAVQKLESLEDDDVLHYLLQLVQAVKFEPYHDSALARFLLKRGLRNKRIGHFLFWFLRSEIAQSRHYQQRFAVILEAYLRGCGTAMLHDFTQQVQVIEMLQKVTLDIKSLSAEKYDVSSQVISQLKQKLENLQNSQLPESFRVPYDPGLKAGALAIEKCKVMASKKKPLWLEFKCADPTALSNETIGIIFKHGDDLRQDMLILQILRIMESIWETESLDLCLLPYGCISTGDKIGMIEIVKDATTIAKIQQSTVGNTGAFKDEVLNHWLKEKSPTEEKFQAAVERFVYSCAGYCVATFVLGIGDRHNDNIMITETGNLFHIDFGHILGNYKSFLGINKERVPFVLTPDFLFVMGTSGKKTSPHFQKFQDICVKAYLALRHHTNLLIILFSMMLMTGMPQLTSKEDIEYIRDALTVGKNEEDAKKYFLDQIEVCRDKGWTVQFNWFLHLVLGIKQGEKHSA
Outline: as §1

SMILES | inhibition at 1.1 µM [1] [%] | inhibition at 1.1 µM [2] [%] | inhibition at 1 µM [3] [%] | inhibition at 1 µM [4] [%] | p110 alpha Percent Inhibition [1] [%] | p110 beta Percent Inhibition [2] [%] | p110 delta Percent Inhibition [3] [%] | p110 gamma Percent Inhibition [4] [%]
N#Cc1c(N2CCOC(CO)C2)sc(C(=O)O)c1Cc1ccc2ccccc2c1 (centres unmarked) [Compound 297, 4-cyano-5-[2-(hydroxymethyl)morpholin-4-yl]-3-(2-naphthylmethyl)thiophene-2-carboxylic acid] | 26 | 104 | 77 | 33 |  |  |  | 
CCN(CC)C(c1ccc(Cl)cc1)c1cc(-c2ccnc(Cl)c2)sc1-c1nnc[nH]1 (centres unmarked) [Compound 243] | 12 | 66 | 45 | 4 |  |  |  | 
CC(=O)Nc1cc(-c2cc(C(c3ccc(Cl)cc3)N3CCC[C@@H]3CO)c(-c3nnc[nH]3)s2)ccn1 (some centres unmarked) [Compound 268] | 82 | 95 | 102 | 16 |  |  |  | 
CN(C)C(c1ccc(Cl)c(Cl)c1)c1c(C(=O)O)sc(N2CCOCC2)c1C#N (centres unmarked) [Compound 336] |  |  |  |  | 16 | 90 | 49 | 10
N#Cc1c(N2CCOCC2)sc(C(=O)O)c1C(CCO)c1ccc(Cl)c(Cl)c1 (centres unmarked) [Compound 347, 4-cyano-3-[1-(3,4-dichlorophenyl)-3-hydroxypropyl]-5-(morpholin-4-yl)thiophene-2-carboxylic acid] | 71 | 102 | 111 | 60 |  |  |  | 
Oc1cc(-c2sc(-c3ccncc3)nc2Cc2ccc(Cl)cc2)[nH]n1 [Compound 178, 5-(4-(4-chlorobenzyl)-2-(pyridin-4-yl)thiazol-5-yl)-1H-pyrazol-3-ol] | 20 | 109 | 88 | 38 |  |  |  | 
COC(c1ccc2ccccc2c1)c1c(C(=O)O)sc(N2CCOCC2)c1C#N (centres unmarked) [Compound 368, 4-cyano-3-[methoxy(2-naphthyl)methyl]-5-(morpholin-4-yl)thiophene-2-carboxylic acid] | 89 | 112 |  | 87 |  |  | 113 | 
Cc1n[nH]c(C)c1-c1sc(-c2ccncc2)nc1Cc1ccc(Cl)cc1 [Compound 183] | -2 | 16 | 9 | 3 |  |  |  | 
CC(=O)Nc1cc(-c2nc(Cc3ccc4ccccc4c3)c(C(=O)O)s2)ccn1 [Compound 177, 2-(2-acetamidopyridin-4-yl)-4-(naphthalen-2-ylmethyl)thiazole-5-carboxylic acid] | 79 | 100 | 106 | 34 |  |  |  | 
COC(=O)Nc1cc(-c2cc(C(c3ccc(Cl)cc3)N3CCNCC3)c(-c3nnc[nH]3)s2)ccn1 (centres unmarked) [Compound 152] | 61 | 97 | 106 | 16 |  |  |  | 
c1ccc2cc(Cc3cc(N4CCOCC4)sc3-c3nnn[nH]3)ccc2c1 [Compound 356] | 11 | 95 | 72 | 23 |  |  |  | 
CC(=O)Nc1cc(-c2cc(C(c3ccc(Cl)cc3)N(C)C3CNC3)c(-c3nnc[nH]3)s2)ccn1 (centres unmarked) [Compound 274] | 98 | 109 | 107 | 38 |  |  |  | 
Cc1ccc(C(O)c2cc(-c3ccncc3)sc2-c2nnc[nH]2)c(C)c1 (centres unmarked) [Compound 141] | 17 | 89 | 66 | 15 |  |  |  | 
N#Cc1c(N2CCOCC2)sc(C(=O)O)c1Cc1ccc2sccc2c1 [Compound 311] | 55 | 104 | 105 | 64 |  |  |  | 
